Each structure is given as a SMILES string.

The term inhibition denotes how much of the control response was suppressed.

In assay [1] the target is T1, SAP (Homo sapiens, UniProt P02743). The assay can be described thus: Lead identification: inhibition of ligand binding by SAP (SAP binding to amyloid fibrils, high throughput screening). To be noted: compared with the original hit Ro-15-3479. The text has this: The compounds tested in the experiment shown here were a family of molecules developed as inhibitors of SAP binding to amyloid fibrils, following identification of an initial lead molecule during high throughput screening of a large compound library according to U.S. Pat. No. 6,126,918. […] A chemistry programme then produced, (R)-1-[6-(R)-2-Carboxy-pyrrolidin-1-yl]-6-oxo-hexanoyl]pyrrolidine-2-carboxylic acid (Ro-63-8695) (Example 8b of EP-A-915088) and a family of related molecules, that were tested here.

The target of assay [2] is T1, SAP. The assay can be described thus: Inhibition of binding of 125I radiolabelled SAP to Neisseria meningitidis immobilized in microtitre plates. Details: 5 μl of radiolabelled SAP in TN; from tissue. The following applies: read-out: Percent inhibition of binding of radiolabelled SAP to immobilized Neisseria meningitidis; for inhibition at 0.2 µM: compound 200 nM; for inhibition at 2 µM: compound 2 μM; for inhibition at 20 µM: compound 20 μM. The procedure: A suspension of heat killed Neisseria meningitidis at 1×10^8 organisms per ml in PBS was dispensed to polystyrene microtitre plates at 50 μl volumes per well, and left overnight at 4° C. All wells were then washed three times with 200 μl volumes of PBS containing 0.05% v/v Tween 20, prior to equilibration for 2 min with 0.01M Tris buffered 0.14M NaCl/0.002M CaCl2 at pH 8.0 (TC buffer), containing 4% w/v BSA and 0.05%/v Tween 20 (TCBT buffer). The wells were then emptied before adding to each one the following reagents. […] For background, non-specific, non calcium dependent, binding in the presence of EDTA: 5 μl radiolabelled SAP in TN and 45 μl 0.01M Tris buffered 0.14M NaCl at pH 8.0 containing 11.1 mM EDTA, 4.4% w/v BSA and 0.06% w/v Tween 20 (TEBT buffer) to provide final concentrations of EDTA, 10 mM; BSA, 4%; Tween 20, 0.05%. […] All wells were then incubated at room temperature for 2 h before being washed three times with 200 μl volumes of TCBT, allowed to dry for 1 h at room temperature, and bound radiolabelled SAP was then counted.
The capacity of the compounds tested to inhibit binding of SAP to meningococci is expressed as the percentage by which SAP binding was reduced compared to binding in the absence of any inhibitor (Table 1).

For assay [3], the target named is T1, SAP. The assay can be described thus: Inhibition of binding of 125I radiolabelled SAP to native long chromatin immobilized in microtitre plates. The following applies: read-out: Percent inhibition of binding of radiolabelled SAP to immobilized native long chromatin. Also noted: 5 μl of radiolabelled SAP in TN; from tissue.
In assay [4] the target is T1, SAP. The assay can be described thus: Inhibition of binding of 125I radiolabelled SAP to influenza virus immobilized in microtitre plates. Also noted: 5 μl of radiolabelled SAP in TN; from tissue. The following applies: read-out: Percent inhibition of binding of radiolabelled SAP to immobilized influenza virus; for inhibition at 0.2 µM: compound 200 nM; for inhibition at 2 µM: compound 2 μM; for inhibition at 20 µM: compound 20 μM; for inhibition at 200 µM: compound 200 μM. The procedure:
A concentrated suspension of purified influenza virus A/Shanghai/24/90 at 10 mg protein per ml in PBS was diluted 1:50 in PBS and then dispensed to polystyrene microtitre plates at 50 μl volumes per well, and left overnight at 4° C. All wells were then emptied before blocking by addition to each well of 200 μl of 2% w/v BSA in PBS and incubation at room temperature for 1 h. All wells were then washed three times with 200 μl volumes of PBS containing 0.05% v/v Tween 20, prior to equilibration for 2 min with 0.01M Tris buffered 0.14M NaCl/0.002M CaCl2 at pH 8.0 (TC buffer), containing 4% w/v BSA and 0.05% v/v Tween 20 (TCBT buffer). The wells were then emptied before adding to each one the following reagents. […] For background, non-specific, non calcium dependent, binding in the presence of EDTA: 5 μl radiolabelled SAP in TN and 45 μl 0.01M Tris buffered 0.14M NaCl at pH 8.0 containing 11.1 mM EDTA, 4.4% w/v BSA and 0.06% w/v Tween 20 (TEBT buffer) to provide final concentrations of EDTA, 10 mM; BSA, 4%; Tween 20, 0.05%. […] All wells were then incubated at room temperature for 2 h before being washed three times with 200 μl volumes of TCBT, allowed to dry for 1 h at room temperature, and bound radiolabelled SAP was then counted. The compounds tested in the experiment shown here were the same as those specified in Example B above.
The capacity of the compounds tested to inhibit binding of SAP to the immobilised influenza virus is expressed as the percentage by which SAP binding was reduced compared to binding in the absence of any inhibitor (Table 3).

For assay [5], the target named is T1, SAP. The assay can be described thus: Surface plasmon resonance: calcium dependent binding of SAP to immobilised synthetic Aβ-42 amyloid fibrils. The text has this:
Surface plasmon resonance (SPR) is a low throughput but powerfully informative method to identify compounds that are bound by, or themselves bind to SAP, either in a calcium dependent fashion or independently of calcium, for the purposes of the present invention. For example, low molecular weight compounds that inhibit binding of SAP to its macromolecular ligands, including target ligands relevant to the present invention, can be detected by their effect on the signal generated by fluid phase SAP binding to ligand immobilised on the solid phase (Example A). Furthermore, when SAP itself is immobilised on the solid phase in an SPR instrument, the interaction with it of test molecules provided in the fluid phase generates a signal that can be detected and quantified. Purified SAP immobilized within an SPR instrument gives a quantifiable signal when it is exposed to another molecule that forms a complex with the SAP, and this is distinct from the absence of such a signal if no complex is formed. […] Another low throughput but powerful direct method is isothermal calorimetry that measures the heat of interaction in solution between SAP and test compounds according to the present invention. The binding affinity can be measured precisely as a guide to potential efficacy. Typical results by this method for the dissociation constants, Kd, between SAP and various compounds are as follows:
Synthetic Aβ-42 amyloid fibrils (28) were covalently immobilised on the reactant surface of the Fisons IAsys surface plasmon resonance instrument, and then exposed to isolated SAP (32) in solution in Tris-buffered physiological saline in the absence of calcium (shown as TN/N in the Figures). No binding of SAP occurred and thus no signal was generated. Introduction of calcium allowed the SAP to bind specifically to the immobilised amyloid fibrils, generating a readily detectable signal (FIG. 1). […]
On the technique in general: SPR reads the build-up and loss of mass on a sensor chip optically.

T1 sequence (P02743 20-223): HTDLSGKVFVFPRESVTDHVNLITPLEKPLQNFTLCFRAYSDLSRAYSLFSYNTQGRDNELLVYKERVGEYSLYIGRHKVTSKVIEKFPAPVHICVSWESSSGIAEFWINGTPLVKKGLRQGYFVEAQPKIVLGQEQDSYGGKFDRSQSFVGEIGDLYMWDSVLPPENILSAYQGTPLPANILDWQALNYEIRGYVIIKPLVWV

With `C[C@H](CSSC[C@@H](C)C(=O)N1CCC[C@@H]1C(=O)O)C(=O)N1CCC[C@@H]1C(=O)O` [Ro-63-3300, (R)-1-[(S)-3-[(S)-3-[(R)-2-carboxy-pyrrolidin-1-yl]-2-methyl-3-oxo-propyldisulfanyl]-2-methyl-propionyl]-pyrrolidine-2-carboxylic acid], the “Inhibition of ligand binding by SAP, in words” value on SAP [1] is “much more potent”. In addition, the results for the inhibition at 0.2 µM on SAP [2], at SAP [3] (compound 200 nM) and on SAP [4] were 28%, 3% and 47%, respectively. In addition, the inhibition at 2 µM on SAP [2] came to 68%; on SAP [3] (compound 2 μM), 34%; at SAP [4], 78%. Besides, the inhibition at 20 µM on SAP [2] came to 73%; at SAP [3] (compound 20 μM), 69%; on SAP [4], 90%. The inhibition at 2000 µM at SAP [2] (compound 2 mM) amounted to 100%; on SAP [3] (compound 2 mM) it was 99%; at SAP [4] (compound 2 mM) it was 91%. The inhibition at 200 µM on SAP [3] (compound 200 μM) was 88%; on SAP [4] it was 91%.
For `C[C@H](CS)C(=O)N1CCC[C@@H]1C(=O)O` [Ro-15-3479, 1-[(S)-3-Mercapto-2-methylpropionyl]-D-proline], at SAP [5] (50 μmol/l, added after SAP had bound, regenerated surface (FIG. 3)), the “Effect on SPR signal reflecting ligand binding by SAP” value is reported as “completely reversed”. In addition, the “SPR signal on addition of calcium after SAP and compound” value at SAP [5] (100 μmol/l, added before calcium (FIG. 2)) is recorded as “no signal”. At SAP [5] (500 μmol/l in TC buffer, added after SAP had bound (FIG. 1)), the “Effect on binding of SAP to immobilised amyloid fibrils and the corresponding SPR signal” value is given as “completely reversed the binding of SAP”. Also, on SAP [2], the inhibition at 0.2 µM came out at 3%, the inhibition at 2 µM was 42% and the inhibition at 20 µM worked out at 50%. Moreover, the inhibition at 200 µM on SAP [2] (compound 200 μM) came out at 54%. Besides, on SAP [4], the inhibition at 0.2 µM stood at 12%, the inhibition at 2 µM worked out at 30%, the inhibition at 20 µM is 40% and the inhibition at 200 µM amounted to 51%.

(Values after patent US7659299B2, “Compounds inhibiting the binding of sap for treating osteoarthritis” (Pentraxin Therapeutics Limited, priority 2003, dated 2010).)
